% of inhibition, % of control and dTM data for five compounds are collected here from ChEMBL document CHEMBL5465560, “Selectivity Literature for EUbOPEN Chemogenomic Library” (2024).

In test [1] the target is T1, Dual specificity tyrosine-phosphorylation-regulated kinase 3 (Homo sapiens) (UniProt O43781).
T1 sequence (whole entry): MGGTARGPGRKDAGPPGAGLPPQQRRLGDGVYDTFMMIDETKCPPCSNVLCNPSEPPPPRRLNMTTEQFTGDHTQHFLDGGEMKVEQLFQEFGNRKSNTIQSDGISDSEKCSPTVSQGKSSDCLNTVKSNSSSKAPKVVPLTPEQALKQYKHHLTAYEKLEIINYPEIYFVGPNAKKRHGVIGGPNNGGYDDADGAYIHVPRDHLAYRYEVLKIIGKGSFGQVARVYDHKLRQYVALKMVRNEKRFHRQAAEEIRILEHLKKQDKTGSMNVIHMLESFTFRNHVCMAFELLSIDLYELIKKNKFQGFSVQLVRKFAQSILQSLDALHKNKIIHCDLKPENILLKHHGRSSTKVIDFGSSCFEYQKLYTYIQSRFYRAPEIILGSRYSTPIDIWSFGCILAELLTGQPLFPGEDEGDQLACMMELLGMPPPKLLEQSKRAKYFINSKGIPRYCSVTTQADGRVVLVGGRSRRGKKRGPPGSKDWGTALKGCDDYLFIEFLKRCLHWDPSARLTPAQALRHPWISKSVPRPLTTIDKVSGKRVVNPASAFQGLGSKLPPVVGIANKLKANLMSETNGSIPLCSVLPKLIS
Put plainly: Selectivity interaction (SelectScreen profiling (Invitrogen)) EUB0000607a DYRK3. The conditions noted are these: at 2 µM.

Test [2] addresses Phosphatidylinositol 4-kinase type 2-beta (Homo sapiens) (UniProt Q8TCG2). Put plainly: Selectivity interaction (ActivX KiNativ screen (kinase selectivity in THP-1 cell lysates)) EUB0000639a PI4K2B. It counts as subcellular. To be noted: lysate.
Test [3] addresses Homeodomain-interacting protein kinase 1 (Homo sapiens, UniProt Q86Z02). Put plainly: Selectivity interaction (KinomeScan (DiscoverX)) EUB0000655a HIPK1. To be noted: at 10 µM.
The target in test [4] is Mitogen-activated protein kinase kinase kinase 11 (Homo sapiens) (UniProt Q16584). Put plainly: Selectivity interaction (KinomeScan (DiscoverX)) EUB0000092b MAP3K11. The conditions noted are these: at 10 µM.
Test [5] addresses T2, Serine/threonine-protein kinase 36 (Homo sapiens) (UniProt Q9NRP7).
T2 sequence (whole entry): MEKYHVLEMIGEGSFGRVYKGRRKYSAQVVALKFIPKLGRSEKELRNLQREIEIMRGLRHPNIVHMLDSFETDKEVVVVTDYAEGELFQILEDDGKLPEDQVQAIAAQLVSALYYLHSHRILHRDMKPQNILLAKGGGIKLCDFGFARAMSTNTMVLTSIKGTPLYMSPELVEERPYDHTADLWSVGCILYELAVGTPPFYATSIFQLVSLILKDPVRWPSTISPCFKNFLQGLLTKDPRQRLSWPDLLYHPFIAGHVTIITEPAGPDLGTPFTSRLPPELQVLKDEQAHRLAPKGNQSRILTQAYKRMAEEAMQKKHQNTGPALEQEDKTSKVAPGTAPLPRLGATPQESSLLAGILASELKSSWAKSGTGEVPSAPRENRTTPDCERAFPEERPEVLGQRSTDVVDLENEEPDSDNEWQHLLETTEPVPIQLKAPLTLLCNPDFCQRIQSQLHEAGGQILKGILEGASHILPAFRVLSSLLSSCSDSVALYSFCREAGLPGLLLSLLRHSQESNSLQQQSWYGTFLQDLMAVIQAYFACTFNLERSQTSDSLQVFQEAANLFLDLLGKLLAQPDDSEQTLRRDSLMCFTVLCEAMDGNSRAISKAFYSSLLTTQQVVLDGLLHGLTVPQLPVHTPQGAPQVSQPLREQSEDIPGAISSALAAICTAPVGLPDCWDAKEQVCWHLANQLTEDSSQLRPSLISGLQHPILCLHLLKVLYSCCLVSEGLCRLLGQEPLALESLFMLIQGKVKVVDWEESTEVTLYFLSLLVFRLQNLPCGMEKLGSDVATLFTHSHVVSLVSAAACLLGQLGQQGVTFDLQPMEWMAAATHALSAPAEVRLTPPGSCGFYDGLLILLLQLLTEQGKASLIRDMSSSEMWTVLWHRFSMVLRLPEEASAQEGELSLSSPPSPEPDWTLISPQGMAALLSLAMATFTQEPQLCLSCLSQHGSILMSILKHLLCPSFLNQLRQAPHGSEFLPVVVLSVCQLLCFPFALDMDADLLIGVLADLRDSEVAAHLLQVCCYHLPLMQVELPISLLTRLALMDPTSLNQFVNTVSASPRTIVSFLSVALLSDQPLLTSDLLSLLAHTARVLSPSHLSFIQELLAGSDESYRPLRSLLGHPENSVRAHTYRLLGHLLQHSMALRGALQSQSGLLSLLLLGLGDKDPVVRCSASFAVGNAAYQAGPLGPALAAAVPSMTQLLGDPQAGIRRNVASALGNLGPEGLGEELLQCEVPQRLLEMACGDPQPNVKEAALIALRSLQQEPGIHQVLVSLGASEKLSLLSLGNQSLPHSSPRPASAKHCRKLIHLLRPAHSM
Put plainly: Selectivity interaction (KinomeScan (DiscoverX)) EUB0000092b STK36. The conditions noted are these: at 10 µM.

Test [6] addresses Bromodomain adjacent to zinc finger domain protein 2B (Homo sapiens) (UniProt Q9UIF8). Put plainly: Selectivity interaction (Human bromodomain panel (DSF assay)) EUB0000233b BAZ2B. In general terms: In DSF a fluorescence change marks the thermal transition of the protein.

Chain of Phosphatidylinositol 4-kinase type 2-beta (Homo sapiens) (Q8TCG2 whole entry): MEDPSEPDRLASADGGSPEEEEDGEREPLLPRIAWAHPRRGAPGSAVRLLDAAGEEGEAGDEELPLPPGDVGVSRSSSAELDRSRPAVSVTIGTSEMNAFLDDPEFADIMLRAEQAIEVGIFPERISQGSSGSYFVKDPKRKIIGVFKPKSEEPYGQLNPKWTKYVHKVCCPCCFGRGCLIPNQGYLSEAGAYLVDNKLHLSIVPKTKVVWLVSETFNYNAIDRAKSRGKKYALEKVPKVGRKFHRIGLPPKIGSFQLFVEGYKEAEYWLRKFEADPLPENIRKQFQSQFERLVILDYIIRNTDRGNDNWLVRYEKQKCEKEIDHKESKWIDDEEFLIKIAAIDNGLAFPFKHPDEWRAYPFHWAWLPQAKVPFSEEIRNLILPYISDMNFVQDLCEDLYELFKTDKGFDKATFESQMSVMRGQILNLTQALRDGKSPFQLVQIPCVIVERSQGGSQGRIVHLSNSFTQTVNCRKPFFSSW
Chain of Homeodomain-interacting protein kinase 1 (Q86Z02 whole entry, looked up): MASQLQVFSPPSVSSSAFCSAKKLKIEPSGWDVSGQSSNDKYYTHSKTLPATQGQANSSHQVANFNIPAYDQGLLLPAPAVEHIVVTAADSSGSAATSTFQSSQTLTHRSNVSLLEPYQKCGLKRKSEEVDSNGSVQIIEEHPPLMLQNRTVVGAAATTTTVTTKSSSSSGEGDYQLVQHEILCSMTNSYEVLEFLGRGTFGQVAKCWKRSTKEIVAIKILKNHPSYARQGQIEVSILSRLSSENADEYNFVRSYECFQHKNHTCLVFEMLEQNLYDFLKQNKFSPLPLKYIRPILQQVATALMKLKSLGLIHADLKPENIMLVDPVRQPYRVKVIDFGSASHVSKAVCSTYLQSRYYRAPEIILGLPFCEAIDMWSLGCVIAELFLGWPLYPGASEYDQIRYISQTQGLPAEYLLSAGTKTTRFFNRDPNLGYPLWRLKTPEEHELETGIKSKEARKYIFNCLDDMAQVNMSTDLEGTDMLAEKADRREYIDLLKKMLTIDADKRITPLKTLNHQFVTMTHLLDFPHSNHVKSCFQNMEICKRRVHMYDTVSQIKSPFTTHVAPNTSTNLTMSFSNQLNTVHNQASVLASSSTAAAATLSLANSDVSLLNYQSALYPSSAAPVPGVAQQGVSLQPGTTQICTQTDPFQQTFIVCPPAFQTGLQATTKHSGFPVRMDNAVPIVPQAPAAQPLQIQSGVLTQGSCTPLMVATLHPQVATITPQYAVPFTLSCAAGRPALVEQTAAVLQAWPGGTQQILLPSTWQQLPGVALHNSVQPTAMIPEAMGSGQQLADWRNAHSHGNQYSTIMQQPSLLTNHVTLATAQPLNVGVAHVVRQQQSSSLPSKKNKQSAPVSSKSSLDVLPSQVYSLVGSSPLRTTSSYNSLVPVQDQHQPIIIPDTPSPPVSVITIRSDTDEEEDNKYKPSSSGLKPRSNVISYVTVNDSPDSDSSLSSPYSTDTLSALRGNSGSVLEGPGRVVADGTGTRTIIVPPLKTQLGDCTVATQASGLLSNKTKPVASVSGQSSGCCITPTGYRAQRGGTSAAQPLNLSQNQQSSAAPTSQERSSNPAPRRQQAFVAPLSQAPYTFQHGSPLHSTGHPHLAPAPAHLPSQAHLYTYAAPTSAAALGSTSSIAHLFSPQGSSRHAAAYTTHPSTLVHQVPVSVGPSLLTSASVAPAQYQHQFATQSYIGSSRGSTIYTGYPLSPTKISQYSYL
Chain of Bromodomain adjacent to zinc finger domain protein 2B (Homo sapiens) (Q9UIF8 whole entry, the tested form may be a part): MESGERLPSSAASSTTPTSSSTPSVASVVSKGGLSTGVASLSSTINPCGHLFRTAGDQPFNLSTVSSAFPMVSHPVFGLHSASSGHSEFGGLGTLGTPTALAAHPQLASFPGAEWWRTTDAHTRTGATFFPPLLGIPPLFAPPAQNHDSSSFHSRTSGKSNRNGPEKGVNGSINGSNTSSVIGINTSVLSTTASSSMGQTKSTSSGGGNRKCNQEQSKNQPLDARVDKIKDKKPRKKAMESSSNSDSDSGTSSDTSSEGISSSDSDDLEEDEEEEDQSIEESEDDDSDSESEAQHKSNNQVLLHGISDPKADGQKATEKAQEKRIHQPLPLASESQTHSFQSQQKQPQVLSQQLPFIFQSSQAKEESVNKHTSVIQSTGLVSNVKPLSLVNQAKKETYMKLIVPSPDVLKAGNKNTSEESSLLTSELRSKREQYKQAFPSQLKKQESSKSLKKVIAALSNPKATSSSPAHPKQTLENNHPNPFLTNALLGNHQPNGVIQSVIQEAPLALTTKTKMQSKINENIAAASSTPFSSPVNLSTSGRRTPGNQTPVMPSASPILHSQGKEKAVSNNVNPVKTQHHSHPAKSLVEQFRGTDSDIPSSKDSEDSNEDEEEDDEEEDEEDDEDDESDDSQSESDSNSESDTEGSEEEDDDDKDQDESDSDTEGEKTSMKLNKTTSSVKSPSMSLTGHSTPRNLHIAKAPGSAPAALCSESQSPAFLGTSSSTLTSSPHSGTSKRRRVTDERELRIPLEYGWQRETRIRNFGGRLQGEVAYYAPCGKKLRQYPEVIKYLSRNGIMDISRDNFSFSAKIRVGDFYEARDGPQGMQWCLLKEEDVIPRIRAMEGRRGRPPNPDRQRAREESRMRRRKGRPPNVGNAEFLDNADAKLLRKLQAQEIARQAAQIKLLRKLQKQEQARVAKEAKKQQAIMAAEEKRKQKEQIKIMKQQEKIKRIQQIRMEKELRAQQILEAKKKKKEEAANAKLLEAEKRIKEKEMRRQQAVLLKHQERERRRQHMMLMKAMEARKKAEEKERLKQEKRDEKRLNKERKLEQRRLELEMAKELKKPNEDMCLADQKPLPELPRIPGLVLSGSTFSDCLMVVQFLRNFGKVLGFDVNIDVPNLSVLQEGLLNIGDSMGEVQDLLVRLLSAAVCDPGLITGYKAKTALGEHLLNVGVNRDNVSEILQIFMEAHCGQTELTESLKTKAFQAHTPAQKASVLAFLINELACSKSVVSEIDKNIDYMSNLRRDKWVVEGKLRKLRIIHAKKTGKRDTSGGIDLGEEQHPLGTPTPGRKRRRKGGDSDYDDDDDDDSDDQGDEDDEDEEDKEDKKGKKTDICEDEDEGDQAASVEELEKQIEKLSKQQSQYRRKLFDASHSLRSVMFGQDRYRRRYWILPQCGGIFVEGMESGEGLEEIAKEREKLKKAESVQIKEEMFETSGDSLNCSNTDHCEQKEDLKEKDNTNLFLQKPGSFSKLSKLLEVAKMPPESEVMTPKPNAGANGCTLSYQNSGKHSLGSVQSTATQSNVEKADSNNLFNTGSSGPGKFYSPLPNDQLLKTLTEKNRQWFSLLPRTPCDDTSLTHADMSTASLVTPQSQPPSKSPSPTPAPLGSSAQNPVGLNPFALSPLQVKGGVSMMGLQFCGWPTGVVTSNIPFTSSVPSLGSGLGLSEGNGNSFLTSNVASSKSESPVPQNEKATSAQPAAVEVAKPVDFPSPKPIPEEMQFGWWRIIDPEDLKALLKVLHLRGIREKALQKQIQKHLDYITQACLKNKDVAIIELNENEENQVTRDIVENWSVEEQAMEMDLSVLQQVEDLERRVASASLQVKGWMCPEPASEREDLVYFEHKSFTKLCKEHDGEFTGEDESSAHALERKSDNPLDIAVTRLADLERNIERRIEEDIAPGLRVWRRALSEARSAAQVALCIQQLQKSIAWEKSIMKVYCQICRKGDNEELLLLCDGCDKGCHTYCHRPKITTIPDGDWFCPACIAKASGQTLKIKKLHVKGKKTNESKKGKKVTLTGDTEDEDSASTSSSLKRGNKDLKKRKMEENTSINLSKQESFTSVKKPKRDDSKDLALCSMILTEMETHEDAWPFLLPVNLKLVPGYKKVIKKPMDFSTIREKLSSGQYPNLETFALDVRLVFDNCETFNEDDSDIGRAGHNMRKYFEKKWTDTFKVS
Chain of Mitogen-activated protein kinase kinase kinase 11 (Homo sapiens) (Q16584 whole entry, looked up): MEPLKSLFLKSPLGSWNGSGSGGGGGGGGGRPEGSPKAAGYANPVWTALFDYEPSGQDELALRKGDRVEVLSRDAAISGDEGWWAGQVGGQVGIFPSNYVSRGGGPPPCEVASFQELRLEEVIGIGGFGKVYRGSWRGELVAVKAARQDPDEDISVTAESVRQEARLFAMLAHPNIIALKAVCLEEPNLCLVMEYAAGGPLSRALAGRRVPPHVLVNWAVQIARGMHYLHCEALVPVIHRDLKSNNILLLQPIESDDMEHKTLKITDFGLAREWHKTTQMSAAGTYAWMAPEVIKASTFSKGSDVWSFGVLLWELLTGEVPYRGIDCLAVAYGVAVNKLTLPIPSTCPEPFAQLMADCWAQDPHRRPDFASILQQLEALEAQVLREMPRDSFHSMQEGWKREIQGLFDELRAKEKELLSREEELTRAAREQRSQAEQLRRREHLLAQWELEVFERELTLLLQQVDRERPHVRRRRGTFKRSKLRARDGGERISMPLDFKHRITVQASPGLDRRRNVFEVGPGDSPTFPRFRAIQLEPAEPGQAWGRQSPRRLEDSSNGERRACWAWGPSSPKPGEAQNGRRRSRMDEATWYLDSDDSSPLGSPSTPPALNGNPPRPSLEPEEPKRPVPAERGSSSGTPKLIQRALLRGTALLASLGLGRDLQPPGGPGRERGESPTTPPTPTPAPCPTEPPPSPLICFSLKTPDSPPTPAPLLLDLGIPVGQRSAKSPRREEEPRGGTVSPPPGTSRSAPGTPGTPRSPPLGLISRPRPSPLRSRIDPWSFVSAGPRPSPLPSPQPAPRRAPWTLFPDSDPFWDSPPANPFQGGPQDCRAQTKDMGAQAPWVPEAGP

For `CNC(=O)Nc1ccc(-c2nc(N3CC4CCC(C3)O4)c3cnn(C4CCC5(CC4)OCCO5)c3n2)cc1`, in test [1], the % of inhibition was -1%.
For the compound `CC[C@@H]1[C@H](F)C(=O)N[C@@H]1COc1nccc2cc(C(N)=O)c(OC)cc12` [ZIMLOVISERTIB], the % of inhibition in test [2] (at 0.01 µM) is 13.9%; in test [2] (at 0.04 µM), -2.8%; in test [2] (at 0.2 µM), -47.4%; in test [2] (at 1 µM), -23.2%; in test [2] (at 5 µM), -24%.
As to `CN(C)CCOc1ccc(-c2nc(-c3ccncc3)c(-c3ccc4c(c3)CC/C4=N\O)[nH]2)cc1`, the % of control in test [3] came to 11%.
Consider `CCC(=O)N1CCN(c2ccc(-n3c(=O)ccc4cnc5ccc(-c6cnc7ccccc7c6)cc5c43)cc2C(F)(F)F)CC1`, for which the % of control in test [4] was 69%; in test [5], 17%.
Consider `CN(C)CCCOc1ccc(-c2cc(NCCCn3cccn3)nc(S(C)(=O)=O)n2)cc1`, for which, in test [6], the dTM was under 2 K.
